Values of other authors in patent US8632828B2, “Chinese herbal medicine composition used for antiinflammation, detumescence and acesodyne, and preparation method and use thereof” (priority 2009, dated 2014).

Experiments:
People = settings: oral administration
mice = settings: subcutaneous injection
rats = settings: intravenous injection
[1] = tested on: ehrlich ascites tumor of mice; settings: intraperitoneal injection
melanin tumour = settings: mice, intraperitoneal injection

CCN1C[C@]2(COC)[C@H](O)C[C@H](OC)[C@@]34[C@@H]5C[C@@]6(O)[C@H](OC(=O)c7ccccc7)[C@@H]5[C@@](OC(C)=O)([C@@H]([C@H](OC)[C@H]23)[C@@H]14)[C@@H](O)[C@@H]6OC [Aconitine]
fatal dosage (People): 2~5 mg
LD50 (mice): 0.32 mg/kg

COc1c2ccoc2cc2oc(=O)ccc12 [bergapten]
LD50 (rats): 945 mg/kg

Cc1cc(O)c2c(c1)C(=O)c1cc(O)cc(O)c1C2=O [emodin]
inhibiting effect on ehrlich ascites tumor [1]: injection, have good inhibiting
inhibiting effect on melanin tumour (melanin tumour): injection, have good inhibiting

COC[C@]12CN(C)[C@@H]3[C@@H]4[C@H](OC)[C@H]1[C@@]3([C@@H](OC)C[C@H]2O)[C@@H]1C[C@@]2(O)[C@H](OC(=O)c3ccccc3)[C@@H]1[C@]4(OC(C)=O)[C@@H](O)[C@@H]2OC [mesaconitine]
fatal dosage (mice): fatal dosage was 0.3~0.5 mg/kg.

COc1c2occc2cc2ccc(=O)oc12 [xanthotoxin]
LD50 (rats): 160 mg/kg
